Data set [1] concerns allergic sheep. As to the kind of experiment: Antigen-induced airway hyperresponsiveness (AHR), PD400 of carbachol, acute responder sheep. The format is in vivo. The settings on record: acute responders; for inhibition of AHR (PD400): 2 hours after antigen, FIG. 7. As for the experimental part:
(§1) To assess the normal or baseline airway responsiveness of the sheep, cumulative dose response curves to inhaled carbochol were performed. The SRL of each sheep was measured before and after inhalation of a buffered saline solution and after each administration of 10 breaths of increasing concentrations of carbachol (0.25, 0.5, 1.0, 2.0 and 4.0% wt/vol solution). Airway responsiveness was defined by determination of the cumulative provocation dose (PD400) of carbachol (in breath units) that increased SRL to 400% above baseline. One breath unit was defined as one breath of 1% carbachol solution.
(§2) The following experiments used inhaled D- or L-propranolol. AHR was estimated at 2 hours (acute) or 24 hours (dual) after antigen challenge as the provocating dose of carbachol which increased SRL by 400% (PD400). In acute responders, SRL increased by 219% with antigen challenge and PD400 decreased by 55%. Inhaled D-propranolol had no effect on baseline SRL, but inhibited ABR in a dose dependent manner.

For data set [2], the system named is allergic sheep. As to the kind of experiment: Antigen-induced bronchoconstriction (early and late phase SRL), dual responder sheep. Particulars: dual responders. It is filed as in vivo. From the text: Data was expressed as specific resistance, SRL.
Data set [3] deals with allergic sheep. As to the kind of experiment: Antigen-induced airway hyperresponsiveness (AHR), PD400 of carbachol, dual responder sheep. The format is in vivo. Particulars: dual responders. As for the experimental part: as §1, §2
The test system of data set [4] is allergic sheep. The settings on record: for inhibition of ABR: FIG. 6.
Description: Five allergic sheep, with previously documented acute bronchoconstrictor response to Ascaris suum antigen, were used for all studies. The sheep were intubated with a cuffed nasotracheal tube and pulmonary airflow resistance (RL) was measured by the esophageal balloon catheter technique, while thoracic gas volume was measured by body plethysmography. Data was expressed as specific resistance, SRL. SRL is defined as RL times thoracic gas volume (Vtg).
The normal reaction of the sheep to the antigen from Ascaris suum is measured. After full recovery and a two week rest period, the sheep again undergo repeat antigen challenge, but this time only after treatment with D-propranolol.
The SRL of the acute responder sheep was measured prior to any treatment (baseline). The normal response of the sheep to antigen challenge by Ascaris suum antigen was measured (Open circles). […] One hour after D-propranolol was administered, the sheep were challenged with Ascaris suum antigen by inhalation. The SRL was measured immediately after antigen challenge (AG0).
Specific lung resistance (SRL) was measured in 11 allergic sheep, of which six sheep were acute responders and five sheep were dual responders, before and serially after challenge with Ascaris suum antigen, without and after pretreatment with D- or L-propranolol. The propranolol was administered either in an inhaled dose or an oral dose.
The mark [5] stands for this setting: inhaled, FIG. 18 (legend: 10 mg/kg).

Where two headings read alike, the source gives them in different places.

In the case of `CC(C)NC[C@@H](O)COc1cccc2ccccc12` [D-propranolol], the “airway responsiveness (PD400) after antigen” value with allergic sheep [1] (Example I, inhaled 10 mg in 4 mL PBS, P=NS, FIG. 4) is on record as “maintained the airway responsiveness levels at the baseline”. Further, the “inhibition of AHR (PD400)” value in the data set with allergic sheep [1] (inhaled, 5 mg dose) is on record as 30%; in the data set on allergic sheep [1] (inhaled, 10 mg dose), 50%; with allergic sheep [1] (inhaled, 20 mg dose, P<0.05 vs post-antigen) it was 75%; in the data set on allergic sheep [3] (inhaled, 5 mg dose, 24 hours after antigen, P<0.05, FIG. 13), 44%. Further, the “effect on AHR (change in PD400)” value in the data set on allergic sheep [1] (oral, 5 mg/kg, FIG. 11) is reported as “effects”. The “attenuation of early phase” value with allergic sheep [2] (inhaled, 5 mg dose, FIG. 12) is 35%. In the data set on allergic sheep [2] (inhaled, 5 mg dose, FIG. 12), the “attenuation of late phase” value came to 21%. Also, the “effect on ABR” value with allergic sheep [2] (inhaled, 10 mg dose, FIG. 14) is given as “effected ABR”. In the data set on allergic sheep [2] (oral, 5 mg/kg, FIG. 16), the “effect on early phase” value is “significantly effected the early phase”. Also, in the data set with allergic sheep [2] (oral, 5 mg/kg, FIG. 16), the “effect on late phase response” value is given as “may even remove the late phase response”. Also, the “effect on AHR” value is recorded as “effected” in the data set on allergic sheep [3] (inhaled, 10 mg dose, FIG. 15) and “effected AHR” in the data set on allergic sheep [3] (oral, 5 mg/kg, FIG. 17). Moreover, the “allergic bronchoconstriction after antigen challenge” value in the data set with allergic sheep [4] (Example I, acute responders (n=5), aerosol 10 mg in 4 mL PBS one hour before antigen, FIG. 1) was “significant inhibition of allergic bronchoconstriction”. Further, the “percentage change in SRL after antigen stimulation vs control” value in the data set with allergic sheep [4] (Example I, acute responders (n=5), aerosol 10 mg in 4 mL PBS, P<0.05, FIG. 2) is “significantly less change in SRL”. The “inhibition of ABR” value in the data set with allergic sheep [4] (acute responders, inhaled, 5 mg dose) was determined as 37%; with allergic sheep [4] (acute responders, inhaled, 10 mg dose, P<0.05), 68%; in the data set on allergic sheep [4] (acute responders, inhaled, 20 mg dose), 44%. Further, the “effect on ABR (change in SRL)” value in the data set with allergic sheep [4] (acute responders, oral, 5 mg/kg, FIG. 10) was “effects ABR”. Further, the “effect on baseline SRL” value in the data set with allergic sheep [4] (in vivo) is “had no effect”.

For the compound `CC(C)NC[C@H](O)COc1cccc2ccccc12` [L-propranolol, reference compound], the “AHR response (PD400)” value in the data set on allergic sheep [1] (inhaled, 10 mg dose, FIG. 9) is “no difference between the post antigen and L-propranolol responses”. In the data set with allergic sheep [2] (setting [5]), the “effect on antigen-induced responses” value is listed as “ineffective”, the “peak early change in SRL” value came to 351% and the “peak late SRL” value came to 175%. Further, the “effect on PD400” value in the data set on allergic sheep [3] (inhaled, 24 hours after antigen, FIG. 19 (legend: 10 mg/kg)) was “had no effect”. Also, the “change in SRL after antigen challenge” value in the data set on allergic sheep [4] (acute responders, inhaled, 10 mg dose, FIG. 8) worked out at 209%.
